These results are taken from patent US12473290B2, “Imidazopyridazine compounds useful as modulators of IL-12, IL-23 and/or IFN alpha responses” (BRISTOL-MYERS SQUIBB COMPANY, priority 2019, dated 2025).

What all share (format): cell-based
The test system of test [1] is IFNα Kit225 Reporter (Kit225 T cells with a stably-integrated STAT-dependent luciferase reporter, stimulated with IFNα). The test is described as follows: Kit225 T Cell Assay, IFNα-stimulated STAT-dependent luciferase reporter. The conditions noted are these: 200 U/mL human recombinant IFNα, 5-6 hours, luciferase expression. The method, then:
(§1) Kit225 T cells with a stably-integrated STAT-dependent luciferase reporter were plated in RPMI (Gibco) containing 10% heat-inactivated FBS (Gibco) and 100 U/mL PenStrep (Gibco). The cells were then stimulated with either 20 ng/mL human recombinant IL-23 or 200 U/mL human recombinant IFNα (PBL InterferonSource) for 5-6 hours. Luciferase expression was measured using the STEADY-GLO® Luciferase Assay System (Promega) according to the manufacturer's instructions. Inhibition data were calculated by comparison to no inhibitor control wells for 0% inhibition and non-stimulated control wells for 100% inhibition. Dose response curves were generated to determine the concentration required to inhibit 50% of cellular response (IC50) as derived by non-linear regression analysis.
(In a reporter assay the amount or activity of a reporter protein is the signal.)

For test [2], the system named is IL-23 Kit225 Reporter (Kit225 T cells with a stably-integrated STAT-dependent luciferase reporter, stimulated with IL-23). The test is described as follows: Kit225 T Cell Assay, IL-23-stimulated STAT-dependent luciferase reporter. As to conditions: 20 ng/mL human recombinant IL-23, 5-6 hours, luciferase expression. The method, then: as §1
Assay in test [3]: as above
As to conditions: Kit225 T cells, 20 ng/mL human recombinant IL-23, 5-6 hours, luciferase expression. The procedure: as §1

The IC50 is the concentration at which inhibition is half-maximal. In the case of `N#Cc1cnc2c(Nc3ccc(C(=O)N4[C@H]5CC[C@@H]4CC5)c(OCC(F)F)n3)cc(NC3CCOCC3)nn12` [Example 46, 8-{[6-(2,2-difluoroethoxy)-5-[(1s,4s)-7-azabicyclo[2.2.1]heptane-7-carbonyl]pyridin-2-yl]amino}-6-[(oxan-4-yl)amino]imidazo[1,2-b]pyridazine-3-carbonitrile], the IC50 came to 360 nM in test [1] and 60 nM in test [2].
Consider `CN(C)C1CCN(C(=O)c2ccc(Nc3cc(NC4CCOCC4)nn4c(C#N)cnc34)nc2OCC(F)F)C1` (stereo not shown) [Example 48, 8-{[6-(2,2-difluoroethoxy)-5-[3-(dimethylamino)pyrrolidine-1-carbonyl]pyridin-2-yl]amino}-6-[(oxan-4-yl)amino]imidazo[1,2-b]pyridazine-3-carbonitrile], for which the figures for the IC50 in test [1] and in test [3] were 340 nM and 740 nM, respectively.
The corresponding values for `N#Cc1cnc2c(Nc3ccc(C(=O)N4CCCC4C(F)(F)F)c(OCC(F)F)n3)cc(NC3CCOCC3)nn12` (stereo not shown) [Example 49, 8-{[6-(2,2-difluoroethoxy)-5-[2-(trifluoromethyl)pyrrolidine-1-carbonyl]pyridin-2-yl]amino}-6-[(oxan-4-yl)amino]imidazo[1,2-b]pyridazine-3-carbonitrile] are 220 nM and 160 nM.
The corresponding values for `CC(=O)NCc1ccc(-c2cccc(Nc3cc(NC4CCOCC4)nn4c(C#N)cnc34)n2)cc1` [Example 50, N-({4-[6-({3-cyano-6-[(oxan-4-yl)amino]imidazo[1,2-b]pyridazin-8-yl}amino)pyridin-2-yl]phenyl}methyl)acetamide] are 760 nM and 1100 nM.
The corresponding values for `N#Cc1cnc2c(Nc3ccc(C(=O)NCC4CC4)cn3)cc(NCC3CC3)nn12` [Example 51, 6-({3-cyano-6-[(cyclopropylmethyl)amino]imidazo[1,2-b]pyridazin-8-yl}amino)-N-(cyclopropylmethyl)pyridine-3-carboxamide] are 160 nM and 150 nM.
Consider `CC(C)(C)NC(=O)c1ccc(Nc2cc(NCC3CC3)nn3c(C#N)cnc23)nc1` [Example 52, N-tert-butyl-6-({3-cyano-6-[(cyclopropylmethyl)amino]imidazo[1,2-b]pyridazin-8-yl}amino)pyridine-3-carboxamide], for which the IC50 in test [1] was found to be 80 nM; in test [3], 140 nM.
Regarding `N#Cc1cnc2c(Nc3ccc(C(=O)N[C@@H]4CCC[C@@H]4O)cn3)cc(NCC3CC3)nn12` [Example 53, 6-({3-cyano-6-[(cyclopropylmethyl)amino]imidazo[1,2-b]pyridazin-8-yl}amino)-N-[(1R,2S)-2-hydroxycyclopentyl]pyridine-3-carboxamide], the IC50 in test [1] amounted to 140 nM; in test [3], 240 nM.
The corresponding values for `CC(C)N1CCN(c2cccc(Nc3cc(N[C@@H]4CCCC[C@H]4O)nn4c(C#N)cnc34)n2)CC1` [Example 54, 6-{[(1R,2R)-2-hydroxycyclohexyl]amino}-8-({6-[4-(propan-2-yl)piperazin-1-yl]pyridin-2-yl}amino)imidazo[1,2-b]pyridazine-3-carbonitrile] are 880 nM and 630 nM.
The corresponding values for `N#Cc1cnc2c(Nc3cccc(N4CCN(CCO)CC4)n3)cc(N[C@@H]3CCCC[C@H]3O)nn12` [Example 55, 6-{[(1R,2R)-2-hydroxycyclohexyl]amino}-8-({6-[4-(2-hydroxyethyl)piperazin-1-yl]pyridin-2-yl}amino)imidazo[1,2-b]pyridazine-3-carbonitrile] are 620 nM and 530 nM.
`N#Cc1cnc2c(Nc3cccc(N4CCOCC4=O)n3)cc(N[C@@H]3CCCC[C@H]3O)nn12` [Example 56, 6-{[(1R,2R)-2-hydroxycyclohexyl]amino}-8-{[6-(3-oxomorpholin-4-yl)pyridin-2-yl]amino}imidazo[1,2-b]pyridazine-3-carbonitrile]: the IC50 in test [1] is 380 nM; in test [3], 430 nM.
In the case of `CCC1(C)NC(=O)N(c2cccc(Nc3cc(N[C@@H]4CCCC[C@H]4O)nn4c(C#N)cnc34)n2)C1=O` (stereo partly drawn) [Example 57, 8-{[6-(4-ethyl-4-methyl-2,5-dioxoimidazolidin-1-yl)pyridin-2-yl]amino}-6-{[(1R,2R)-2-hydroxycyclohexyl]amino}imidazo[1,2-b]pyridazine-3-carbonitrile], the IC50 amounted to 750 nM in test [1] and 920 nM in test [3].
As to `N#Cc1cnc2c(Nc3cccc(N4C(=O)NC5(CCCCC5)C4=O)n3)cc(N[C@@H]3CCCC[C@H]3O)nn12` [Example 58, 8-[(6-{2,4-dioxo-1,3-diazaspiro[4.5]decan-3-yl}pyridin-2-yl)amino]-6-{[(1R,2R)-2-hydroxycyclohexyl]amino}imidazo[1,2-b]pyridazine-3-carbonitrile], the IC50 in test [1] turned out to be 810 nM; in test [3], 550 nM.
Consider `N#Cc1cnc2c(Nc3cccc(N4CCCCCC4=O)n3)cc(N[C@@H]3CCCC[C@H]3O)nn12` [Example 59, 6-{[(1R,2R)-2-hydroxycyclohexyl]amino}-8-{[6-(2-oxoazepan-1-yl)pyridin-2-yl]amino}imidazo[1,2-b]pyridazine-3-carbonitrile], for which the results for the IC50 in test [1] and in test [3] were 930 nM and 660 nM, respectively.
Turning to `CC(C)C(=O)N1CCN(c2cccc(Nc3cc(N[C@@H]4CCCC[C@H]4O)nn4c(C#N)cnc34)n2)CC1` [Example 60, 6-{[(1R,2R)-2-hydroxycyclohexyl]amino}-8-({6-[4-(2-methylpropanoyl)piperazin-1-yl]pyridin-2-yl}amino)imidazo[1,2-b]pyridazine-3-carbonitrile], the IC50 in test [1] came to 370 nM; in test [3], 350 nM.
As to `N#Cc1cnc2c(Nc3cccc(-n4cccn4)n3)cc(N[C@@H]3CCCC[C@H]3O)nn12` [Example 61, 6-{[(1R,2R)-2-hydroxycyclohexyl]amino}-8-{[6-(1H-pyrazol-1-yl)pyridin-2-yl]amino}imidazo[1,2-b]pyridazine-3-carbonitrile], the values for the IC50 in test [1] and in test [3] were 450 nM and 940 nM, respectively.
The corresponding values for `CN1CCN(c2cccc(Nc3cc(N[C@@H]4CCCC[C@H]4O)nn4c(C#N)cnc34)n2)CC1` [Example 62, 6-{[(1R,2R)-2-hydroxycyclohexyl]amino}-8-{[6-(4-methylpiperazin-1-yl)pyridin-2-yl]amino}imidazo[1,2-b]pyridazine-3-carbonitrile] are 200 nM and 290 nM.
The corresponding values for `CS(=O)(=O)N1CCN(c2cccc(Nc3cc(N[C@@H]4CCCC[C@H]4O)nn4c(C#N)cnc34)n2)CC1` [Example 63, 6-{[(1R,2R)-2-hydroxycyclohexyl]amino}-8-{[6-(4-methanesulfonylpiperazin-1-yl)pyridin-2-yl]amino}imidazo[1,2-b]pyridazine-3-carbonitrile] are 550 nM and 110 nM.
The corresponding values for `CC(=O)N1CCN(c2cccc(Nc3cc(N[C@@H]4CCCC[C@H]4O)nn4c(C#N)cnc34)n2)CC1` [Example 64, 8-{[6-(4-acetylpiperazin-1-yl)pyridin-2-yl]amino}-6-{[(1R,2R)-2-hydroxycyclohexyl]amino}imidazo[1,2-b]pyridazine-3-carbonitrile] are 500 nM and 350 nM.
Turning to `N#Cc1cnc2c(Nc3cccc(N4CCOCC4)n3)cc(N[C@@H]3CCCC[C@H]3O)nn12` [Example 65, 6-{[(1R,2R)-2-hydroxycyclohexyl]amino}-8-{[6-(morpholin-4-yl)pyridin-2-yl]amino}imidazo[1,2-b]pyridazine-3-carbonitrile], the IC50 is 110 nM in test [1] and 550 nM in test [3].
The corresponding values for `N#Cc1cnc2c(Nc3cccc(N)n3)cc(N[C@@H]3CCCC[C@H]3O)nn12` [Example 66, 8-[(6-aminopyridin-2-yl)amino]-6-{[(1R,2R)-2-hydroxycyclohexyl]amino}imidazo[1,2-b]pyridazine-3-carbonitrile] are 340 nM and 710 nM.
